Assay results taken from patent US20080039483A1, “Novel Chelidonine Derivatives, Methods for the Production Thereof, and Use Thereof For Producing Pharmaceutical Agents” (priority 2003, published 2008).
Values after ≈ are worked out from the molar mass of the structure shown.

What was measured:
[1] = system: Panc1 (pancreas); test: MTT cytotoxicity test, Panc1; format: cell-based
[2] = system: BxPC3 (pancreas); test: MTT cytotoxicity test, BxPC3; format: cell-based
[3] = system: U373MG (astrocyte); test: MTT cytotoxicity test, U373MG; format: cell-based
[4] = system: Colo205 (colon); test: MTT cytotoxicity test, Colo205; format: cell-based
[5] = system: T47D (breast); test: MTT cytotoxicity test, T47D; format: cell-based
[6] = system: SK-0V3 (ovarian)
[7] = system: T47D, Colo205, Panc1, BxPC3, U373MG, SK-0V3; test: MTT cytotoxicity test, activity compared to native chelidonine across the cell lines; format: cell-based; settings: for activity compared to native chelidonine: overall, times higher than native chelidonine; for activity compared to native chelidonine, range: range of times higher than native chelidonine

Q: How did the “IC50, MTT cytotoxicity test” value [1] turn out when `COC(=O)CCC(=O)O[C@H]1Cc2cc3c(cc2[C@@H]2[C@H]1c1ccc4c(c1CN2C)OCO4)OCO3` [Chelidoninyl methyl succinate, Succinic Acid Chelidoninyl Methyl ester] was run?
A: The value was 0.005 µg/mL.

Q: What about the “IC50, MTT cytotoxicity test” value [2] of the same molecule?
A: The value was <0.0035 µg/mL.

Q: And the “IC50, MTT cytotoxicity test” value [3]?
A: The value was 4 µg/mL.

Q: And the “IC50, MTT cytotoxicity test” value [4]?
A: The value was 0.0035 µg/mL.

Q: And the “IC50, MTT cytotoxicity test” value [5]?
A: Its value is 0.02 µg/mL.

Q: And the “IC50, MTT cytotoxicity test” value [6]?
A: Its value is 0.0035 µg/mL.

Q: And the “activity compared to native chelidonine” value [7]?
A: Its value is “approximately 30 times”.

Q: And the “activity compared to native chelidonine, range” value [7]?
A: Its value is 50-150 times.

Q: What does the source list for “Chelidoninyl Trifluoroacetate [Chelidonine trifluoroacetate]”?
A: IC50, MTT cytotoxicity test [1]: 0.06 µg/mL; IC50, MTT cytotoxicity test [2]: 0.03 µg/mL; IC50, MTT cytotoxicity test [3]: >4 µg/mL; IC50, MTT cytotoxicity test [4]: 0.045 µg/mL; IC50, MTT cytotoxicity test [5]: 0.02 µg/mL; IC50, MTT cytotoxicity test [6]: 0.06 µg/mL; activity compared to native chelidonine [7]: 5 times; activity compared to native chelidonine, range [7]: 4-10 times

Q: What does the source list for `CN1Cc2c(ccc3c2OCO3)[C@@H]2[C@H]1c1cc3c(cc1C[C@@H]2O)OCO3` [Chelidonine]?
A: IC50 ([1]; Homo sapiens, PANC-1): 0.25 µg/mL (≈ 0.707 µM); IC50 ([2]; Homo sapiens, BXPC-3): > 8 µg/mL; IC50 ([3]; Homo sapiens, U373 MG): > 8 µg/mL; IC50 ([4]; Homo sapiens, COLO 205): 0.37 µg/mL (≈ 1.05 µM); IC50 ([5]; Homo sapiens): 0.2 µg/mL (≈ 0.566 µM)

Q: How did the “IC50, MTT cytotoxicity test” value [1] turn out when `CN1Cc2c(ccc3c2OCO3)C2C(OC(=O)OC(Cl)(Cl)Cl)Cc3cc4c(cc3C21)OCO4` (centres unmarked) [Chelidoninyl trichloromethyl carbonate, Chelidoninyl Trichloromethyl Carbonate] was run?
A: Its value is 0.25 µg/mL (≈ 0.486 µM).

Q: What about the “IC50, MTT cytotoxicity test” value [2] of the same molecule?
A: Its value is >8 µg/mL.

Q: And the “IC50, MTT cytotoxicity test” value [3]?
A: Its value is >8 µg/mL.

Q: What about the “IC50, MTT cytotoxicity test” value [4] of the same molecule?
A: The value was 0.5 µg/mL (≈ 0.971 µM).

Q: What about the “IC50, MTT cytotoxicity test” value [5] of the same molecule?
A: The value was 0.2 µg/mL (≈ 0.389 µM).
